In US20120035265A1, “COMPOSITIONS, METHODS, AND DEVICES FOR THE TREATMENT OF DYSMENORRHEA” (MediciNova, Inc., priority 2010, published 2012):

What was measured:
[1] = tested on: heart rate and mean blood pressure of dam; test: Heart rate and mean blood pressure of dam in anesthetized pregnant rats; format: in vivo, rat; details: intravenous cumulative dosing
Protocol: Rats were anesthetized with urethane, and experiments were conducted based on balloon method. Uterine activity and mean blood pressure of dam were led to a pressure amplifier via a pressure transducer. As for heart rate, pulse waves were led to tachometer. Recti-graphs were used for recording. The test substance, control substance, or positive control substance was administered intravenously and cumulatively every 15 minutes, while doses were increased gradually.

pregnant sheep = test: Oxytocin-induced uterine contractions, cardiovascular system and general metabolism of pregnant sheep and their fetuses; format: in vivo
Protocol: MN-221 (0.001, 0.003, 0.01, 0.03, 0.1 and 0.3 μg/kg/min) was weighed and dissolved in physiological saline. At 123-125 days of pregnancy, sheep were infused with oxytocin (1.0 mU/kg/min) to induce uterine contractions. One hour later, MN-221 was infused for 3 consecutive hours beginning at a dose of 0.001 μg/kg/min for 30 min and increasing stepwise every 30 min to 0.3 μg/kg/min in the MN-221 group (N=4). The control received saline instead (N=4).

CN(C)C(=O)COc1ccc2c(c1)C[C@@H](NC[C@H](O)c1ccc(O)c(CCO)c1)CC2 [MN-221, (−)-bis(2-{[(2S)-2-({(2R)-2-hydroxy-2-[4-hydroxy-3-(2-hydroxyethyl)phenyl]ethyl}amino)-1,2,3,4-tetrahydronaphthalen-7-yl]oxy}-N,N-dimethyl-acetamide) monosulfate]
decrease in mean blood pressure of dam [1]: significantly small
effect to increase heart rate of dam [1]: significantly weaker than that of any of other agents
maternal heart rate, diastolic and mean blood pressure, base excess, blood K+, blood lactate, plasma glucose, insulin, non-esterified fatty acid levels, fetal plasma glucose and insulin levels (pregnant sheep; MN-221 group versus control (saline) group): Significant differences between the two groups
suppression of oxytocin-induced uterine contractions (pregnant sheep; at doses over 0.03 μg/kg/min, infusion, oxytocin 1.0 mU/kg/min, pregnant sheep): more than 90%
cardiovascular and metabolic side effects (pregnant sheep; pregnant sheep and fetuses, stepwise infusion 0.001 to 0.3 μg/kg/min): reduced cardiovascular and metabolic side effects
